Like-named read-outs stand apart in the source and are kept apart here. Non-standard residues stand in square brackets, D forms with d. No end group written: not given here.
Legend:
[1] = system: CD4+CD25(−) T cells; test: bystander suppression of anti-CD3 activated CD4+CD25(−) T cells; type: cell-based, mouse; conditions: 72 h, 2 concentrations (2mM, 4 mM)
Method: Bystander suppression assays. Target CD4+CD25− T cells and T helper clones were labelled with 125nM CFSE (Molecular Probes) for 15 minutes in PBS at 37° C. The reaction was stopped by washing the cells with PBS containing 30% FBS. These cells (3×10^5) were cocultured with 10^5 cytotoxic CD4+ T cell clones and cell depleted splenocytes with 1 μg/ml anti-CD3 antibody (eBioscience), For suppression of T helper clones, 10^5 cells were co-cultured with the same number of cytotoxic cells and T cell depleted splenocytes. After 48 h or 72 hours, cells were collected and analysed by flow cytometry.
First, the capacity of Tregs was assayed to suppress the proliferation of CD4+CD25(−) T cells after anti-CD3 activation in the presence of antigen-presenting cells. […] This effect was even more pronounced at 72 h for the second T cell clone (lower middle panel). […] The control experiment in which Treg was replaced by an identical number of unlabeled CD4+CD25(−) T cells (right panels) eliminated a possible artefact related to variable numbers of total cells in the culture medium.
Next, the kinetics of suppression were analysed. In the experiments shown in FIG. 14b, it can be seen that 48 and 70% of CFSE-labelled CD4+CD25(−) T cells express Annexin V after 18 and 24 h co-incubation with a cytolytic Treg (R3TB7), respectively, using the same assay system as in FIG. 14a. […]

[2] = system: WEHI cells; test: apoptosis of peptide-loaded WEHI cells by cytolytic T cell clones, with inhibitors; type: cell-based, mouse; conditions: p21-35 loaded WEHI cells and a cytolytic T cell clone
Method: For inhibition of GZ-B activity, Z-AAD-CMK (Calbiochem) or 3,4-dichloroiso-coumarin (DCIC) (SIGMA) were added at indicated concentrations during all the co-culture period.
Experiments were carried out with p21-35-loaded CD11c dendritic (FIG. 13b: left panel) or WEHI cells (FIG. 13b: right panel). Upon incubation with R3TB7 virtually all dendritic cells (DC) or Wehi cells were induced into apoptosis as measured by caspase 3 activation.
Apoptosis can be induced by either the Fas-FasL pathway or by secretion of cytotoxic granules containing granzymes. Attempts were made to inhibit each of these pathways. Addition of increasing concentrations of an antibody towards FasL, or of granzyme B inhibitors, to a cell culture containing p21-35 loaded WEHI cells and a cytolytic T cell clone, increased the number of surviving WEHI cells in a dose-dependent manner (FIG. 13c). In a number of experiments it was shown that the anti-FasL antibody restored up to 80% of WEHI cell survival.
To further ascertain that APC lysis required direct contact with cytolytic T cells through MHC class II presentation of p21-35, an experiment was carried out in which two identical populations of Wehi cells were loaded with either p21-35 or with an irrelevant peptide (p71-85). These two populations could be distinguished by differential CFSE labelling. It can be seen from FIG. 13e that, while WEHI cells presenting p21-35 were fully lysed, only 40% of p71-85-loaded cells were affected.

[3] = system: dendritic cells; type: cell-based
[4] = system: Patients; test: patients with birch pollen and apple allergy treated with peptide; type: in vivo, human; conditions: 3 SC injections
Excerpt: Patients presenting with allergic symptoms upon exposure to birch pollen together with an oro-pharyngeal allergy to ingestion of apple and treated by 3 SC injections of peptide CGPC […] [SEQ ID.

[5] = system: polyclonal CD4+CD25− cells; test: bystander suppression assay with CD4+CD25− cells from EAE animals; type: cell-based, mouse; conditions: 20 μg SC on aluminium hydroxide, three injections
Method: Groups of C57BL/6 mice are immunised subcutaneously (20 μg) with peptide (CHGS […] [SEQ ID. NO: 32], which contains the sequence motif C-X(2)-S) or control peptide ([…] [SEQ ID. NO: 33]) adsorbed onto aluminium hydroxide, Three injections are performed at 2-week intervals. Ten days after the last immunisation, mice are sacrificed and CD4+ T cells (2×10^6 cells) are prepared from the spleen using magnetic beads. CD4+ T cells are then stimulated in vitro by the MOG T cell epitope (20 μg/ml) presented by adherent spleen cells (2×10^6 cells).
After four re-stimulations, a T cell line is tested in a bystander suppression assay with, as target cells, polyclonal CD4+CD25− cells obtained from animals in which EAE (Experimental autoimmune encephalomyelitis) was effective.

[6] = system: C57BL/6 mice; test: prevention of multiple sclerosis by peptide immunisation; type: in vivo, mouse; conditions: 5 injections 20 μg in IFA at 14 days interval before disease induction
Method: In the model group, 3 C57BL/6 mice received, at day 0, SC injection of 100 μg MOG peptide/400 μg Mycobacterium butyricum in CFA and ip injection of 300 ng Bortetella pertussis in NaCl. At day +2, a second injection of B. pertussis was given.
In the prevention group, 5 C57BL/6 mice are immunised by 5 injections with 20 μg CSMOG peptide (CHGS […] [SEQ ID. NO: 32]), which contains the sequence motif C-X(2)-S, in IFA at 14 days interval before disease induction as in the model group. Control experiments are performed with the peptide [SEQ ID. NO: 33] lacking the motif at its N-terminus.
Scores were established as 0: no disease, 1: limp tail, 2: limp tail and loss of weight higher than 10%, 3: partial paralysis of hind limbs.

[7] = system: NOD mice; test: spontaneous insulin-dependent diabetes in NOD mice, GAD65 derived peptide; type: in vivo, mouse
Excerpt: Non-obese diabetes (NOD) mice constitutes a suitable animal model for spontaneous insulin-dependent diabetes.
Adoptive transfer of Treg at the age of 2 weeks in NOD mice, namely before the onset of insulitis (3 weeks of age) is shown to fully prevent the onset of diabetes.
Direct immunisation of NOD mice with the peptide CRLC […] [SEQ ID.
Immunisation with peptide CRLC […] [SEQ ID.

[8] = system: polyclonal CD4 cells; test: apoptosis of polyclonal CD4 cells from peptide 524-543 immunised NOD mice; type: cell-based, mouse; conditions: APC loaded with peptide 524-543
Excerpt: NOD mice are immunised with peptide containing the thioredoxin consensus sequence in IFA (incomplete Freund adjuvans) from the age of 2 weeks. T cells are expanded in vitro to generate clones with regulatory properties.
The table in FIG. 23 represents the percentage of double positive cells (dead cells) after substraction of background values obtained without the regulatory population.

[9] = system: MHC II cleft; test: affinity for the MHC II cleft; type: binding
[10] = system: CD4+ T cell; test: CD4+ T cell proliferation elicited by single amino acid p21-35 mutants (IP immunisation in alum); conditions: mouse, in vivo
Method: Based on findings showing that regulation can be more readily achieved with analogues of T cell epitopes, the capacity of various single amino acid p21-35 mutants to elicit CD4+ T cell after IP immunisation in alum was determined. […] The mutated form of mp21-35 (mp21-35Asn) was therefore use in the remainder of the experiments in this Example.

[11] = system: spleen CD4+ T cells; conditions: mouse, in vivo, ip
[12] = system: G221N; test: peptide processing assay with effector T cell clone G221N; type: cell-based, mouse
[13] = system: WEHI cells; test: Wehi cell apoptosis by the G121 regulatory T cell clone with various forms of peptide; type: cell-based, mouse
[14] = system: BALB/c mice; conditions: mouse, in vivo

Q: With O=C(O)CN(CCOCCOCCN(CC(=O)O)CC(=O)O)CC(=O)O [EGTA] as the compound, how does the “inhibition of the suppression of bystander T cells” value [1] read?
A: The value was “Basically no inhibition”.

Q: What about the “restoration of WEHI cell survival” value [2] of the same compound?
A: The value was “only partial restoration of Wehi cell survival”.

Q: Which results are given for “(CGPC)D-isomer LRAVESYLLAH ([dC]G[dP][dC]LRAVESYLLAH; cysteine pairing not given here) [SEQ ID. NO: 47]”?
A: apoptosis of dendritic cells by CD4+ T cells of treated subjects ([3]; dendritic cells loaded with the Mal d 1 antigen): resulted in dendritic cell apoptosis; apoptosis of dendritic cells by CD4+ T cells of treated subjects ([3]; dendritic cells presenting the Bet v 1 antigen, three SC injections of 50 μg on alum): induced apoptosis of dendritic cells presenting the Bet v 1 antigen; reaction to pollen exposure or apple contact [4]: failed to react to either exposure to pollen or contact with apple

Q: With “CHGS YRSPFSRVVHLYR (CHGSYRSPFSRVVHLYR; reducing motif fused to MOG (Myelin Oligodendrocyte Glycoprotein) peptide) [SEQ ID. NO: 32]” as the compound, how does the “capacity of T cell line from immunised animals to induce death in target cells” value [5] read?
A: The value was “have the capacity to induce death in target cells”.

Q: And the “development of the syndrome (clinical score)” value [6]?
A: The value was “completely abolishes the development of the syndrome”.

Q: For “CRLC KVAPVIKARMM (CRLCKVAPVIKARMM; modified fragment of glutamic acid decarboxylase (GAD65)) [SEQ ID. NO: 35]”, which “diabetes and insulitis, suppression by immunisation” value ([7]; after 15 weeks of age) is on record?
A: Its value is “suppress diabetes and insulitis”.

Q: What about the “diabetes and insulitis, prevention by direct immunisation” value ([7]; from the age of 2 weeks) of the same compound?
A: The value was “fully prevent diabetes and lesions of insulitis”.

Q: What about the “apoptosis induced by polyclonal cells from immunised mice” value [8] of the same compound?
A: Its value is “induce apoptosis in polyclonal CD4 cells”.

Q: Which “affinity for the MHC II cleft versus natural p21-35” value [9] does the source give for “IIe28Asn: IIe28Asn substitution of Der p 2 peptide p21-35 (CHGSEPCNIHRGKPF; UniProt P49278 38-52, looked up, fragment I28N)” here?
A: Its value is “lower affinity”.

Q: What about the “capacity to induce T cell proliferation” value [10] of the same compound?
A: The value was “only slightly reduced”.

Q: What does the source list for “QYIKANSKFIGITELGGCHGSEPCIIHRGKPF [mp21-35]”?
A: Der p 2-induced proliferation of spleen CD4+ T cells [11]: significant reduction; requirement for internalisation, fusion with and acidification of late endosomes [12]: required internalisation into antigen-presenting cells; requirement for peptide processing [12]: had to be processed for efficient presentation; efficiency in inducing Wehi cell apoptosis in the presence of the G121 Treg, as compared to p21-35 [13]: 100 fold; suppression of airway inflammation and hyperreactivity [14]: even more effective in suppressing airway inflammation and hyperreactivity

Reference: US11718650B2, “Immunogenic peptides and their use in immune disorders” (IMCYSE SA, priority 2006, dated 2023)
